From patent US10294202B2, “Pyrrolidinones as herbicides” (FMC Corporation, priority 2013, dated 2019)

How the values were obtained:
johnsongrass = test: Test C pre-/postemergence herbicide test; type: in vivo, Sorghum halepense
In short: (§1)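 Pre- and postemergence greenhouse screen. Preemergence treatment went onto freshly planted seeds in loam–sand soil; postemergence treatment went onto plants 2 to 18 cm tall at the 1- to 4-leaf stage in sphagnum peat/vermiculite medium. Scoring at 13 to 15 days used a 0–100 control scale.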

lambsquarters = test: Test C pre-/postemergence herbicide test; type: in vivo, Chenopodium album
In short: as §1

giant foxtail = test: Test A pre-/postemergence herbicide test; type: in vivo, Setaria faberii
In short: (§2)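 Visual injury ratings, 0 = no effect, 100 = complete control, taken ~10 days after treatment against untreated greenhouse controls. Preemergence: directed soil spray onto seeded loam/sand pots. Postemergence: spray onto plants at one- to two-leaf stage, 2–10 cm tall.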

morningglory = test: Test C pre-/postemergence herbicide test; type: in vivo, Ipomoea coccinea
In short: as §1

galium = test: Test C pre-/postemergence herbicide test; type: in vivo, Galium aparine
In short: as §1

barnyardgrass = test: Test C pre-/postemergence herbicide test; type: in vivo, Echinochloa crus-galli
In short: as §1

foxtail, giant = test: Test C pre-/postemergence herbicide test; type: in vivo, Setaria faberii
In short: as §1

pigweed = test: Test C pre-/postemergence herbicide test; type: in vivo, Amaranthus retroflexus
In short: as §1

wheat = test: Test A pre-/postemergence herbicide test; type: in vivo, Triticum aestivum; conditions: Postemergence
In short: as §2

wheat (winter wheat) = test: Test C pre-/postemergence herbicide test; type: in vivo, Triticum aestivum
In short: as §1

[1] = Postemergence, 16 g ai/ha, scale 0 to 100 (0 no effect, 100 complete control)
[2] = Postemergence, 31 g ai/ha, scale 0 to 100 (0 no effect, 100 complete control)
[3] = Postemergence, 62 g ai/ha, scale 0 (no effect) to 100 (complete control)
[4] = Postemergence, 125 g ai/ha, scale 0 to 100 (0 no effect, 100 complete control)
[5] = Preemergence, 31 g ai/ha, scale 0 to 100, 0 is no effect and 100 is complete control
[6] = Preemergence, 62 g ai/ha, scale 0 to 100 (0 no effect, 100 complete control)
[7] = Preemergence, 125 g ai/ha, scale 0 to 100 (0 no effect, 100 complete control)
[8] = Preemergence, 16 g ai/ha, scale 0 to 100

SMILES: CN1CC(c2cccc(C(F)(F)F)c2)C(C(=O)Nc2ccccc2F)C1=O (stereo not drawn) [Compound 277]
- Plant response rating, Johnsongrass (johnsongrass; [1]): 0
- Plant response rating, Johnsongrass (johnsongrass; [2]): 0
- Plant response rating, Johnsongrass (johnsongrass; [3]): 0
- Plant response rating, Johnsongrass (johnsongrass; [4]): 10
- Johnsongrass plant response rating (johnsongrass; [5]): 40
- Johnsongrass plant response rating (johnsongrass; [6]): 65
- Plant response rating, Johnsongrass (johnsongrass; [7]): 85
- Plant response rating, Johnsongrass (johnsongrass; [8]): 0
- Plant response rating, Lambsquarters (lambsquarters; [1]): 25
- Plant response rating, Lambsquarters (lambsquarters; [2]): 30
- Plant response rating, Lambsquarters (lambsquarters; [3]): 40
- Plant response rating, Lambsquarters (lambsquarters; [4]): 40
- Lambsquarters plant response rating (lambsquarters; [5]): 20
- Lambsquarters plant response rating (lambsquarters; [6]): 75
- Plant response rating, Lambsquarters (lambsquarters; [7]): 80
- Plant response rating, Lambsquarters (lambsquarters; [8]): 0
- Plant response rating, Foxtail, Giant (giant foxtail; Postemergence, 125 g ai/ha, 0 to 100 scale, 0 is no effect, 100 is complete control): 90
- Plant response rating, Foxtail, Giant (giant foxtail; Postemergence, 500 g ai/ha, 0 to 100 scale (0 no effect, 100 complete control)): 90
- Plant response rating, Foxtail, Giant (giant foxtail; Preemergence, 125 g ai/ha, 0 to 100 scale where 0 is no effect and 100 is complete control): 90
- Plant response rating, Foxtail, Giant (giant foxtail; preemergence, 500 g ai/ha, 0 to 100 scale, 0 is no effect and 100 is complete control): 90
- Plant response rating, Morningglory (morningglory; [1]): 15
- Plant response rating, Morningglory (morningglory; [2]): 30
- Plant response rating, Morningglory (morningglory; [3]): 30
- Plant response rating, Morningglory (morningglory; [4]): 40
- Morningglory plant response rating (morningglory; [5]): 0
- Morningglory plant response rating (morningglory; [6]): 0
- Plant response rating, Morningglory (morningglory; [7]): 45
- Plant response rating, Morningglory (morningglory; [8]): 0
- Plant response rating, Galium (galium; [1]): 40
- Plant response rating, Galium (galium; [2]): 45
- Plant response rating, Galium (galium; [3]): 60
- Plant response rating, Galium (galium; [4]): 75
- Galium plant response rating (galium; [5]): 100
- Galium plant response rating (galium; [6]): 90
- Plant response rating, Galium (galium; [7]): 100
- Plant response rating, Galium (galium; [8]): 0
- Plant response rating, Barnyardgrass (barnyardgrass; [1]): 5
- Plant response rating, Barnyardgrass (barnyardgrass; [2]): 15
- Plant response rating, Barnyardgrass (barnyardgrass; [3]): 70
- Plant response rating, Barnyardgrass (barnyardgrass; [4]): 80
- Barnyardgrass plant response rating (barnyardgrass; [5]): 95
- Barnyardgrass plant response rating (barnyardgrass; [6]): 98
- Plant response rating, Barnyardgrass (barnyardgrass; [7]): 98
- Plant response rating, Barnyardgrass (barnyardgrass; [8]): 95
- Plant response rating, Foxtail, Giant (foxtail, giant; [1]): 0
- Plant response rating, Foxtail, Giant (foxtail, giant; [2]): 10
- Plant response rating, Foxtail, Giant (foxtail, giant; [3]): 85
- Plant response rating, Foxtail, Giant (foxtail, giant; [4]): 85
- Foxtail, Giant plant response rating (foxtail, giant; [5]): 98
- Foxtail, Giant plant response rating (foxtail, giant; [6]): 98
- Plant response rating, Foxtail, Giant (foxtail, giant; [7]): 98
- Plant response rating, Foxtail, Giant (foxtail, giant; [8]): 95
- Plant response rating, Pigweed (pigweed; [1]): 5
- Plant response rating, Pigweed (pigweed; [2]): 10
- Plant response rating, Pigweed (pigweed; [3]): 10
- Plant response rating, Pigweed (pigweed; [4]): 30
- Pigweed plant response rating (pigweed; [5]): 10
- Pigweed plant response rating (pigweed; [6]): 35
- Plant response rating, Pigweed (pigweed; [7]): 40
- Plant response rating, Pigweed (pigweed; [8]): 0
- Plant response rating, Wheat (wheat; 125 g ai/ha, visual rating on 0 to 100 scale (0 no effect, 100 complete control), approx. 10 days): 60
- Plant response rating, Wheat (wheat; 500 g ai/ha, 0 to 100 scale (0 no effect, 100 complete control)): 70
- Plant response rating, Wheat (wheat (winter wheat); [1]): 0
- Plant response rating, Wheat (wheat (winter wheat); [2]): 0
- Plant response rating, Wheat (wheat (winter wheat); [3]): 0
- Plant response rating, Wheat (wheat (winter wheat); [4]): 0
- Wheat plant response rating (wheat (winter wheat); [5]): 60
- Wheat plant response rating (wheat (winter wheat); [6]): 70
- Plant response rating, Wheat (wheat (winter wheat); [8]): 40
